# From patent US7647217B2, “Structure of the farnesoid X receptor ligand binding domain and methods of use therefor” (The Salk Institute for Biological Studies, priority 2002, dated 2010)
# How the values were obtained:
# [1] = test system: IBABP mRNA in HT29-FXRFL cells; assay: Northern blot of IBABP mRNA induction in HT29 stable cell lines; type: cell-based, human; details: for induction of IBABP mRNA in control lines: HT29-BABE or HT29-FXR-AF2 cell lines; for concentration of maximal activation of the IBABP gene / induction of IBABP mRNA: HT29-FXRFL, overnight treatment
# Procedure: 20 μg total RNA was isolated using Trizol (Invitrogen) and used for Northern blot analysis. cDNA probe for human IBABP was prepared and hybridized to the blot. Blots were normalized by β-actin expression.
# HepG2 or HT29-derived cell lines were typically cultured in medium containing superstripped FBS for 24 hr before the addition of a ligand or DMSO (vehicle) for an additional 24-48 hr. Total RNA was isolated using TRIzol reagent and was resolved (10 μg/lane) on a 1% agarose, 2.2 M formaldehyde gel, transferred to a nylon membrane (Hybond N^+; Amersham Biosciences, Inc.), and cross-linked to the membrane with UV light.
# cDNA probes were radiolabeled with [α-^32P]dCTP using the highprime labeling kit (Amersham Biosciences, Inc.). Membranes were hybridized using the QuikHyb hybridization solution (Stratagene, La Jolla, Calif.) according to the manufacturer's protocol. Blots were normalized for variations of RNA loading by hybridization to a control probe, either, 18 S ribosomal cDNA, or the ribosomal protein 36B4. The RNA levels were quantitated using a PhosphorImager (ImageQuant software; Molecular Dynamics, Inc., Sunnyvale, Calif.) in addition to being exposed to X-ray film.
# Human colon cells HT29 (FXR null until differentiated) were infected with retroviral vectors that expressed either FXR constructs and the puromycin-resistant gene or the puromycin-resistant gene alone. Puromycin resistant cells were isolated and pooled cell populations were propagated that harbored either the vector alone (HT29-BABE), overexpressed FXR full length (HT29-FXRFL), a non-functional FXR truncated at the AF2 region (HT29-FXR-AF2), or a constitutively active FXR that has the VP16 activation domain fused N-terminal of the protein (HT29-VP16-FXR). Confirmation of the successful establishment of the different stable cell lines was established via northern blot analysis of FXR message levels in the cells (see FIG. 4A). […]
# The ability of the novel compounds identified herein to induce IBABP gene expression in this cell system was also examined. Total RNA from HT29 stable cells treated overnight with fexaramine, fexarine and fexarene was probed for IBABP gene expression (see FIG. 4D).
# hTRβ = target: T1, hTRβ (Homo sapiens, UniProt P10828); assay: GAL4 chimeric NHR cross-reactivity assay; type: cell-based; details: 10 μM
# T1 construct: expressed in transfected cells; host or cells: CV-1 (monkey)
# T1 sequence (P10828 217-461 limits assumed): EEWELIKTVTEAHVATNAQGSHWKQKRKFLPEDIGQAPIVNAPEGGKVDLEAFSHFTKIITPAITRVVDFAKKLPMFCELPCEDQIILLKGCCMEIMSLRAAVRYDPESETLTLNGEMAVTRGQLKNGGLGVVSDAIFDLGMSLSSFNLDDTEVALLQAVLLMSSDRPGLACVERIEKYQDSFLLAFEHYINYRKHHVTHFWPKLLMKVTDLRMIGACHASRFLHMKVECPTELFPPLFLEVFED
# Procedure: (§1) FIGS. 3A-3E collectively show the results of ligand activation of CV-1 cells co-transfected with a luciferase reporter gene with a variety of receptor expression constructs. […] FIGS. 3C-3E show the results of CV-1 cells transiently transfected with the indicated reporter constructs, treated with either DMSO or 10 μM of the compounds fexaramine (3C), fexarine (3D), fexarene (3E). Reporter activity was normalized to the internal control and the data plotted as fold activation relative to untreated cells. All transfections contained CMX-βgal as an internal control.
# (§2) The expression plasmids pCMX, pCMX-LacZ, pCMX-mFXRFL, pCMX-hRXRFL, pCMX-GALDBD-rFXRLBD and other pCUX-GALDBD-NR LBDs (hRXRα, hPPARαγδ, mPXR, hPXR, hLXRα, HTRβ, hRARβ, mCAR, mERR3 and hVDR) have been described elsewhere (Blumberg et al. (1998). SXR, a novel steroid and xenobiotic-sensing nuclear receptor. Genes Dev. 12(20), 3195-205). The reporter plasmids pMH2004-TK-luc, pTKECRE*6-luc, pTKER-8*2-luc and pMRP-2-luc also have been described elsewhere. The hPLTP-luc promoter was kindly provided by Dr Dennis Dowhan and the hIBABP-luc promoter was created from a plasmid provided by Dr Philippe Besnard.
# (§3) Cell-based transcriptional activation assays using chimeric nuclear hormone receptor (NHR) constructs were established to measure the selectivity of the compounds to FXR relative to other NHRs (Forman et al. (1995). Identification of a nuclear receptor that is activated by farnesol metabolites. Cell 81, 687-693). These assays used fusion proteins with the yeast GAL4 DNA binding domain connected to the ligand-binding domain (LBD) of NHRs. These constructs were co-transfected with a thymidine kinase C minimal promoter reporter vector containing four copies of the GAL4 binding site. Titration experiments were then performed using the identified compounds. […] Addition of RXR had no effect on the activation potential of fexaramine, fexarine, fexarene in this assay.
# (§4) No activity was observed on other chimeric NHR constructs including hRXRα, hPPARαγδ, mPXR, hPXR, hLXRα, hTRβ, hRARβ, mCAR, mERR3 and hVDR (see FIGS. 3C-3E).
# mERR3 = target: T2, mERR3 (Mus musculus, UniProt P62509); assay: GAL4 chimeric NHR cross-reactivity assay; type: cell-based; details: 10 μM
# T2 construct: expressed in transfected cells; host or cells: CV-1 (monkey)
# T2 sequence (P62509 233-457 limits assumed): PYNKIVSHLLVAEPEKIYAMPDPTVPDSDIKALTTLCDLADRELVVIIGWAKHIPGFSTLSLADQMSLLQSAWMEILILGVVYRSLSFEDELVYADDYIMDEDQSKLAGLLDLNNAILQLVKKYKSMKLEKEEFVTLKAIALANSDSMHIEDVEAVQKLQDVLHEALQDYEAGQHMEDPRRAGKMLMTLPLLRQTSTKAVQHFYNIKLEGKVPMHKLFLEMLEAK
# Procedure: as §1, §2, §3, §4
# mPXR = target: T3, mPXR (Mus musculus, UniProt O54915); assay: GAL4 chimeric NHR cross-reactivity assay; type: cell-based; details: 10 μM
# T3 construct: expressed in transfected cells; host or cells: CV-1 (monkey)
# T3 sequence (O54915 143-430 limits assumed): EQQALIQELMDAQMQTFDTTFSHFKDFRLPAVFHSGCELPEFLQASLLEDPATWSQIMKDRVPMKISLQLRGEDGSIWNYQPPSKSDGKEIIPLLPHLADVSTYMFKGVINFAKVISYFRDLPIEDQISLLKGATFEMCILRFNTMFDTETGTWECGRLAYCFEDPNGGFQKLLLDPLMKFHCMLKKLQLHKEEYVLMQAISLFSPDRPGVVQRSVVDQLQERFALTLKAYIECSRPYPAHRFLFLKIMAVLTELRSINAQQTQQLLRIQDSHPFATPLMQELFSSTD
# Procedure: as §1, §2, §3, §4
activity on chimeric hTRβ construct (hTRβ),activity on chimeric mERR3 construct (mERR3),activity on chimeric mPXR construct (mPXR),SMILES,induction of IBABP mRNA in control lines [1],concentration of maximal activation of the IBABP gene [1] [µM],induction of IBABP mRNA [1]
–,–,–,"CC(C)c1onc(-c2c(Cl)cccc2Cl)c1COc1ccc(/C=C/c2cccc(C(=O)O)c2)c(Cl)c1 [GW4064, reference compound]",No induction,1,robust concentration dependent induction
No activity,No activity,No activity,COC(=O)/C=C/c1cccc(N(Cc2ccc(-c3ccc(N(C)C)cc3)cc2)C(=O)C2CCCCC2)c1 [fexaramine],No induction,1,induced expression of the IBABP mRNA
No activity,No activity,No activity,COC(=O)/C=C/c1cccc(N(Cc2ccc(/C=C/c3ccccc3)cc2)C(=O)C2CCCCC2)c1 [fexarene],No induction,1,induced expression of the IBABP mRNA
No activity,No activity,No activity,COC(=O)/C=C/c1cccc(N(Cc2ccc(-c3ccc4c(c3)OCO4)cc2)C(=O)C2CCCCC2)c1 [fexarine],No induction,1,induced expression of the IBABP mRNA
